How the values were obtained:
[1] = Binding affinity to 6His-tagged KRAS G12V mutant /GST-tagged RAF1 (unknown origin) incubated for 60 mins by fluorescence based microplate reader assay; set-up: species or system Homo sapiens
GTPase KRas = GTPase KRas (Homo sapiens, UniProt P01116, G12V); experiment: Induction of KRAS G12V mutant degradation in human SW1990 cells incubated for 24 hrs; type: cell-based
Sequence of GTPase KRas (P01116 whole entry G12V): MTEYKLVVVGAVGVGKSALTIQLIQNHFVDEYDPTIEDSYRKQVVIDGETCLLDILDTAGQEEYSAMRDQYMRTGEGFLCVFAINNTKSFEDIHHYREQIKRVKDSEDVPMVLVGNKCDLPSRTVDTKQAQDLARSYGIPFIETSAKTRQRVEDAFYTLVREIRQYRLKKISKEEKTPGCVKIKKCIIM

Row | SMILES | IC50 [1] [nM] | DC50 (GTPase KRas) [nM]
1 | CCc1c(F)ccc2cc(O)cc(-c3ncc4c(N5CCC[C@@](C)(O)C5)nc(OCC5(CN6CCC(C)(CN7CC8(CCN(c9ccc%10c(c9)CN([C@H]9CCC(=O)NC9=O)C%10=O)CC8)C7)CC6)CC5)nc4c3F)c12 | ≤ 20 | ≤ 1
2 | CCc1c(F)ccc2cc(O)cc(-c3ncc4c(N5CCC[C@@](C)(O)C5)nc(OCC5(CN6CCC7(CC6)CC(N6CCN(c8ccc9c(c8)CN([C@H]8CCC(=O)NC8=O)C9=O)CC6)C7)CC5)nc4c3F)c12 | ≤ 20 | ≤ 1
3 | CCc1c(F)ccc2cc(O)cc(-c3ncc4c(N5CCC[C@@](C)(O)C5)nc(OCC5(CN6CCC(OC7CCN(C8CCN(c9ccc%10c(c9)CN(C9CCC(=O)NC9=O)C%10=O)CC8)CC7)CC6)CC5)nc4c3F)c12 (some centres not stated) | ≤ 20 | ≤ 1
4 | CCc1c(F)ccc2cc(O)cc(-c3ncc4c(N5CCC[C@]6(CCO6)C5)nc(OCC5(CN6CCC(CN7CCN(c8ccc9c(c8)CN([C@H]8CCC(=O)NC8=O)C9=O)CC7)CC6)CC5)nc4c3F)c12 | 20 | 1
5 | CCc1c(F)ccc2cc(O)cc(-c3ncc4c(N5CCC[C@@](C)(O)C5)nc(OCC5(CN6CC(N7CCC(N8CCN(c9ccc%10c(c9)CN([C@H]9CCC(=O)NC9=O)C%10=O)CC8)CC7)C6)CC5)nc4c3F)c12 | ≤ 20 | ≤ 1
6 | CCc1cccc2cc(O)cc(-c3ncc4c(N5CCC[C@@](C)(O)C5)nc(OCC5(CN6CCC(OC7CCN(c8ccc9c(c8)CN(C8CCC(=O)NC8=O)C9=O)CC7)CC6)CC5)nc4c3F)c12 (some centres not stated) | 20 | ≤ 1
